Values of other authors, collected in patent publication US20080119448A1, “Methods of treating an ocular allergy with low dose dexamethasone” (priority 2006, published 2008).

Details: dexamethasone at 0.1%

effect on intraocular pressure: increase in intraocular pressure
SMILES: C[C@@H]1C[C@H]2[C@@H]3CCC4=CC(=O)C=C[C@]4(C)[C@@]3(F)[C@@H](O)C[C@]2(C)[C@@]1(O)C(=O)CO [dexamethasone]
